The values below come from publication PMC4487204, “The Neisseria gonorrhoeae Obg protein is an essential ribosome-associated GTPase and a potential drug target” (BMC Microbiology, 2015).

The target in experiment [1] is T1, N-His-ObgGC (NGO1990) (Neisseria gonorrhoeae, UniProt Q5F5D9).
T1 construct: gene obg
Briefly: mant fluorescence enhancement, plate reader. It counts as binding. The following applies: 2 uM protein, 50 mM Tris-HCl pH 8.0, 50 mM KCl, 37 C.

Experiment [2] has as its target T1, N-His-ObgGC (NGO1990). Briefly: single-turnover hydrolysis, decrease of mant fluorescence. In kind it is biochemical. The following applies: 0.3 uM mant-GTP prebound to 16 uM protein, 5 mM MgCl2, pH 8.0, 37 C; first-order rate constant.

Molecules are shown by their SMILES.

T1 sequence (Q5F5D9 whole entry): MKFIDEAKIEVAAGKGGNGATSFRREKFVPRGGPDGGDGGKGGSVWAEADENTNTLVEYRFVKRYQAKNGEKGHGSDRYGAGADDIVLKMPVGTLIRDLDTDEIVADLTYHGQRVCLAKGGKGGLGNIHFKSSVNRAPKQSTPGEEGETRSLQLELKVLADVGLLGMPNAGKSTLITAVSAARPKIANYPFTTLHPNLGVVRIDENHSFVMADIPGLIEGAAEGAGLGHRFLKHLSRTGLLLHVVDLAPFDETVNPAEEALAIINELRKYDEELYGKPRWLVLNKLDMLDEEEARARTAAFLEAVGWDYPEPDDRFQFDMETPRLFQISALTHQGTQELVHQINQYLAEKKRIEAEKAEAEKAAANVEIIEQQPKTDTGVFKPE

Regarding `CNc1ccccc1C(=O)O[C@H]1[C@@H](O)[C@H](n2cnc3c(=O)[nH]c(N)nc32)O[C@@H]1COP(=O)(O)OP(=O)(O)OP(=O)(O)O` [mant-GTP], at N-His-ObgGC (NGO1990) [1] (0.3 uM mant-GTP, 5 mM Mg2+), the “fold enhancement in mant-nucleotide fluorescence” value came to 1.9 fold. At N-His-ObgGC (NGO1990) [2], the kh stood at 0.00023 s⁻¹. On to `CNc1ccccc1C(=O)O[C@H]1[C@@H](O)[C@H](n2cnc3c(=O)[nH]c(N)nc32)O[C@@H]1COP(=O)(O)OP(=O)(O)O` [mant-GDP], for which, at N-His-ObgGC (NGO1990) [1] (0.3 uM mant-GDP, no Mg2+), the “fold enhancement in mant-nucleotide fluorescence” value was found to be 1.3 fold.
